Residues, ends and D or L forms follow the SMILES beside them.
System: LLCMK-2 cells
Experiment: Cytotoxicity assay (TACS MTT, mitochondrial reductase activity)
Assay type: cell-based, African green monkey
Settings: confluent LLCMK-2 monolayers; concentration ranges that showed viral inhibition; compared to medium only controls
Protocol: The cytotoxicity of the chemistries was measured by monitoring mitochondrial reductase activity using the TACS™ MTT cell proliferation assay (R&D Systems, Inc., Minneapolis, Minn.) according to the manufacturer's instructions. Dilutions of chemistries in serum-free DMEM were added to confluent monolayers of LLCMK-2 cells in 96-well plates for 1 h at 37° C., similar to the focus forming inhibition assays, and subsequently incubated at 37° C. with 5% (v/v) CO2 for 24 h. Absorbance at 560 nm was measured using a Tecan GeniosPro plate reader (Tecan US, Durham, N.C.).

## CC[C@H](C)[C@H](NC(=O)[C@H](CC(C)C)NC(=O)[C@@H](NC(=O)[C@H](Cc1ccccc1)NC(=O)[C@H](Cc1c[nH]c2ccccc12)NC(=O)[C@@H](N)Cc1ccccc1)[C@@H](C)O)C(=O)N[C@@H](CCCCN)C(=O)N[C@H](C(=O)N[C@@H](CCC(N)=O)C(=O)N[C@@H](C)C(=O)N[C@@H](CCCCN)C(=O)N[C@@H](CCC(N)=O)C(=O)N1CCC[C@H]1C(=O)N[C@@H](C)C(=O)N[C@@H](CCCNC(=N)N)C(=O)N[C@@H](Cc1ccc(O)cc1)C(=O)N[C@@H](CCCNC(=N)N)C(=O)N[C@@H](CCCNC(=N)N)C(=O)N[C@@H](Cc1ccccc1)C(=O)N[C@@H](CS)C(=O)O)[C@@H](C)O [10AN] (H-FWFTLIKTQAKQPARYRRFC-OH)
  cytotoxicity (mitochondrial reductase activity of target cells): not due to toxicity

From patent US8637472B2, “Optimized dengue virus entry inhibitory peptide (10AN)” (University of Washington Through Its Center for …, priority 2007, dated 2014)
